Earlier results as cited in PMC5278571, “Optimal doses of caspofungin during continuous venovenous hemodiafiltration in critically ill patients” (Critical Care, 2017).
Converted amounts (≈) assume the structure as drawn.

Columns and labels:
[1] = test system: Candida and Aspergillus spp., including Candida parapsilosis; conditions: published MIC90s; cited from earlier work
Description: (§1) Taking into account a MIC of 0.1 mg/L [4], and using the target pharmacokinetics/pharmacodynamics (PK/PD) described for micafungin, we would have reac ...

Candida = conditions: MIC taken for the PK/PD target calculation; cited from earlier work
Description: as §1

Structure (SMILES): CC[C@H](C)C[C@H](C)CCCCCCCCC(=O)N[C@H]1C[C@@H](O)[C@@H](NCCN)NC(=O)[C@@H]2[C@@H](O)CCN2C(=O)[C@H]([C@H](O)CCN)NC(=O)[C@H]([C@H](O)[C@@H](O)c2ccc(O)cc2)NC(=O)[C@@H]2C[C@@H](O)CN2C(=O)[C@H]([C@@H](C)O)NC1=O [caspofungin]
- MIC90 [1]: 2 µg/mL (≈ 1.83 µM)
- MIC (Candida): 0.1 µg/mL (≈ 0.0915 µM)
